pIC50: −log10 of the molar value. Counter-ions that a name gives are not always drawn. Like-named read-outs stand apart in the source and are kept apart here.
Key:
human BACE1 (1-460):Fc = human BACE1 (1-460):Fc (Homo sapiens (Human), UniProt P56817); assay: BACE1 FRET Assay; type: biochemical; details: Mean ± SEM; purified recombinant huBACE1:Fc, FRET substrate, pH 4.6
[1] = biological target: native endogenous human BACE1 (Homo sapiens (Human), UniProt P56817); assay: HEK293Swe Whole Cell Assay (Abeta lowering, ELISA); type: cell-based; details: HEK293/APP751sw cells, Mean ± SEM
[2] = biological target: native, endogenous murine BACE1 (Mus musculus (Mouse), UniProt P56818); assay: PDAPP Primary Neuronal Assay (Abeta lowering, ELISA); type: cell-based; details: primary cortical neurons from PDAPP embryos, 24 h, Mean ± SEM
beta-secretase = beta-secretase (Mus musculus (Mouse), UniProt P56818); assay: In Vivo Inhibition of Beta-Secretase in PDAPP mice
[3] = Abeta 1-40 in conditioned media, read-out: HEK 293 Swe A-beta (1-40) ELISA IC50
[4] = Abeta 1-40, read-out: PDAPP Neuron A-beta (1-40) ELISA IC50
[5] = Abeta 1-42, read-out: PDAPP Neuron A-beta (1-42) ELISA IC50
[6] = 10 mg/kg oral dose, 3 hours after administration, CSF
[7] = 10 mg/kg oral dose, 3 hours after administration, compared to vehicle-treated mice
[8] = 10 mg/kg oral dose, 3 hours, young female PDAPP mice, compared to vehicle-treated mice
[9] = 30 mg/kg oral dose, 3 hours after administration, compared to vehicle-treated mice

Chain of human BACE1 (1-460):Fc (P56817 22-460): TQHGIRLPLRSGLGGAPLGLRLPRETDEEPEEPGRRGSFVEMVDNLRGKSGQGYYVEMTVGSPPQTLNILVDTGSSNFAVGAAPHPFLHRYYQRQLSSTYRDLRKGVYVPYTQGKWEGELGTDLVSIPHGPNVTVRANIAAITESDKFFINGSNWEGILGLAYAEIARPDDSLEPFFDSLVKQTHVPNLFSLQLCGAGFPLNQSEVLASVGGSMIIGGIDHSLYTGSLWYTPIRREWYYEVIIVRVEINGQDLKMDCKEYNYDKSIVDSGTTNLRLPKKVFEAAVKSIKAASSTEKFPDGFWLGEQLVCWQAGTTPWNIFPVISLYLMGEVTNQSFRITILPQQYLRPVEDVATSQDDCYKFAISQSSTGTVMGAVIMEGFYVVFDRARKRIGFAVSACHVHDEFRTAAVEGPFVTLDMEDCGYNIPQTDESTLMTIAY
Chain of native endogenous human BACE1 (P56817 46-501): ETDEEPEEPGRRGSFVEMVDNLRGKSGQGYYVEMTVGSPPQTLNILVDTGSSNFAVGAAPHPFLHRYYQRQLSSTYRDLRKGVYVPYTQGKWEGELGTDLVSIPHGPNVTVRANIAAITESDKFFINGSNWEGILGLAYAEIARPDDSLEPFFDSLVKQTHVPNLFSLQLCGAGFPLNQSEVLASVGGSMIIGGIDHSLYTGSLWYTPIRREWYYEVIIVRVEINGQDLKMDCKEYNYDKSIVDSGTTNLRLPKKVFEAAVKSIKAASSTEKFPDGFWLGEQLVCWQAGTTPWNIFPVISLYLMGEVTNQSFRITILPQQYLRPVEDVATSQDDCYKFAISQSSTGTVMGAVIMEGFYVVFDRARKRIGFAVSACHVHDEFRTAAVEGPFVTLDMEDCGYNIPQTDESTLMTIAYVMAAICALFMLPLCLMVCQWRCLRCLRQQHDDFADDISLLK
Chain of beta-secretase (P56818 46-501): as the sequence (P56817 46-501) above, with P6S, V162I, L165I, S180T, V182A, I340V, L393A, Q443H counted along it
Chain of native, endogenous murine BACE1 (P56818 46-501): as the sequence (P56817 46-501) above, with P6S, V162I, L165I, S180T, V182A, I340V, L393A, Q443H counted along it

SMILES	pIC50 (human BACE1 (1-460):Fc)	pIC50 [1, 3]	pIC50 [2, 4]	pIC50 [2, 5]	CSF Abeta 1-x levels reduced (beta-secretase; [6])	Reduction of CSF sAPPbeta (beta-secretase; [6]) [%]	Abeta 1-x peptide levels reduced in brain cortex (beta-secretase; [7])	Abeta 1-x peptide levels reduced in brain hippocampus (beta-secretase; [7])	C99 levels reduced in brain cortex (beta-secretase; [8]) [%]	C99 levels reduced in brain hippocampus (beta-secretase; [8]) [%]	sAPPb levels reduced in brain cortex (beta-secretase; [8]) [%]	sAPPb levels reduced in brain hippocampus (beta-secretase; [8]) [%]	Abeta 1-x peptide levels reduced in brain cortex (beta-secretase; [9]) [%]	Abeta 1-x peptide levels reduced in brain hippocampus (beta-secretase; [9]) [%]	pIC50 ([1]; Abeta 1-42 in conditioned media, read-out: HEK 293 Swe A-beta (1-42) ELISA IC50)
Cl.NC1=N[C@@]2(c3ccccc3)CN(c3ncc(F)cn3)C[C@H]2CS1 [Example 1, (4aR,7aS)-6-(5-Fluoropyrimidin-2-yl)-7a-phenyl-4,4a,5,7-tetrahydropyrrolo[3,4-d][1,3]thiazin-2-amine hydrochloride]	7.19	6.63	6.94	6.99	approximately 80%	22	approximately 62%	approximately 51%	~63	~58	~34	~37	–	–	–
NC1=N[C@@]2(c3ccc(F)s3)CN(c3ncccn3)C[C@H]2CS1 [Example 30, [(4aR,7aR)-7a-(5-Fluorothiophen-2-yl)-6-(pyrimidin-2-yl)-4,4a,5,6,7,7a-hexahydropyrrolo[3,4-d][1,3]thiazin-2-amine hydrochloride]	6.78	–	–	–	–	–	–	–	–	–	–	–	–	–	–
Cl.N#Cc1ccc([C@]23CN(c4ncc(F)cn4)C[C@H]2CSC(N)=N3)s1 [Example 31, 5-[(4aR,7aR)-2-Amino-6-(5-fluoropyrimidin-2-yl)-4a,5,6,7-tetrahydropyrrolo[3,4-d][1,3]thiazin-7a(4H)-yl]thiophene-2-carbonitrile hydrochloride]	–	–	–	–	–	–	approximately 23%	approximately 18%	–	–	–	–	~63	~51	–
NC1=N[C@@]2(c3ccc(F)s3)CN(c3ncc(F)cn3)C[C@H]2CS1 [Example 32, [(4aR,7aR)-6-(5-Fluoropyrimidin-2-yl)-7a-(5-fluorothiophen-2-yl)-4,4a,5,6,7,7a-hexahydropyrrolo[3,4-d][1,3]thiazin-2-amine hydrochloride]	7.04	6.46	6.42	6.61	–	–	–	–	–	–	–	–	–	–	6.45
